pIC50: −log10 of the molar value.
Test system: 422866-222-R5-J1-PDC complex spheroid viability
Assay: Anticancer human tumor 422866-222-R5-J1-PDC patient-derived pancreatic adenocarcinoma cell line growth inhibition [POLQ]
Settings: for pIC50: curve of first compound; for viability, T/C: stronger effect = lower value
Procedure, shortened: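 Three-cell-type spheroids modelling solid tumor plus stroma served as the readout system; POL inhibitors were tested individually and in combination, concentration ranges set by clinical Cmax where known.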

[1] = second compound 0.0316 µM, first compound 0.0316 µM
[2] = second compound 0.0316 µM, first compound 0.1 µM
[3] = second compound 0.0316 µM, first compound 0.316 µM
[4] = second compound 0.0316 µM, first compound 1 µM
[5] = second compound 0.0316 µM, first compound 3.16 µM
[6] = second compound 0.0316 µM, first compound 10 µM
[7] = second compound 0.1 µM, first compound 0.0316 µM
[8] = second compound 0.1 µM, first compound 0.1 µM
[9] = second compound 0.1 µM, first compound 0.316 µM
[10] = second compound 0.1 µM, first compound 1 µM
[11] = second compound 0.1 µM, first compound 3.16 µM
[12] = second compound 0.1 µM, first compound 10 µM
[13] = second compound 0.316 µM, first compound 0.0316 µM
[14] = second compound 0.316 µM, first compound 0.1 µM
[15] = second compound 0.316 µM, first compound 0.316 µM
[16] = second compound 0.316 µM, first compound 1 µM
[17] = second compound 0.316 µM, first compound 3.16 µM
[18] = second compound 0.316 µM, first compound 10 µM
[19] = second compound 1 µM, first compound 0.0316 µM
[20] = second compound 1 µM, first compound 0.1 µM
[21] = second compound 1 µM, first compound 0.316 µM
[22] = second compound 1 µM, first compound 1 µM
[23] = second compound 1 µM, first compound 3.16 µM
[24] = second compound 1 µM, first compound 10 µM
[25] = second compound 3.16 µM, first compound 0.0316 µM
[26] = second compound 3.16 µM, first compound 0.1 µM
[27] = second compound 3.16 µM, first compound 0.316 µM
[28] = second compound 3.16 µM, first compound 1 µM
[29] = second compound 3.16 µM, first compound 3.16 µM
[30] = second compound 3.16 µM, first compound 10 µM
[31] = second compound 10 µM, first compound 0.0316 µM
[32] = second compound 10 µM, first compound 0.1 µM
[33] = second compound 10 µM, first compound 0.316 µM
[34] = second compound 10 µM, first compound 1 µM
[35] = second compound 10 µM, first compound 3.16 µM
[36] = second compound 10 µM, first compound 10 µM
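Also: spheroids exposed to compounds for one week before readout.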
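For viability, T/C in this document: percent of DMSO vehicle wells luminescence so 100% = untreated viability.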

In the case of `CC(=O)O[C@H]1C(=O)[C@@]2(C)[C@H]([C@H](OC(=O)c3ccccc3)[C@]3(O)C[C@H](OC(=O)[C@H](O)[C@@H](NC(=O)c4ccccc4)c4ccccc4)C(C)=C1C3(C)C)[C@]1(OC(C)=O)CO[C@@H]1C[C@@H]2O` + COC1C(OC(N)=O)C(O)C(Oc2ccc3c(O)c(NC(=O)c4ccc(O)c(CC=C(C)C)c4)c(=O)oc3c2C)OC1(C)C, the pIC50 (second compound 0.0316 µM) was < 5.52, the pIC50 (second compound 0.1 µM) was < 5.52 and the pIC50 (second compound 0.316 µM) was < 5.52. The pIC50 (second compound 1 µM) was < 5.52, the pIC50 (second compound 3.16 µM) was < 5.52 and the pIC50 (second compound 10 µM) was < 5.52. It also gave a viability, T/C (second compound 0.0316 µM, first compound 0.00949 µM) of 64.8%, a viability, T/C (second compound 0.0316 µM, first compound 0.03 µM) of 57.2% and a viability, T/C (second compound 0.0316 µM, first compound 0.0949 µM) of 61.5%. The viability, T/C (second compound 0.0316 µM, first compound 0.3 µM) was 59.5%, the viability, T/C (second compound 0.0316 µM, first compound 0.949 µM) was 64.7% and the viability, T/C (second compound 0.0316 µM, first compound 3 µM) was 80.4%. The viability, T/C (second compound 0.1 µM, first compound 0.00949 µM) was 71.6%, the viability, T/C (second compound 0.1 µM, first compound 0.03 µM) was 67.4% and the viability, T/C (second compound 0.1 µM, first compound 0.0949 µM) was 66%. The viability, T/C (second compound 0.1 µM, first compound 0.3 µM) was 67%, the viability, T/C (second compound 0.1 µM, first compound 0.949 µM) was 69.1% and the viability, T/C (second compound 0.1 µM, first compound 3 µM) was 78.8%. The viability, T/C (second compound 0.316 µM, first compound 0.00949 µM) was 67%, the viability, T/C (second compound 0.316 µM, first compound 0.03 µM) was 63.5% and the viability, T/C (second compound 0.316 µM, first compound 0.0949 µM) was 54.6%. For the same compound, the viability, T/C (second compound 0.316 µM, first compound 0.3 µM) was 65.1%, the viability, T/C (second compound 0.316 µM, first compound 0.949 µM) was 70.7% and the viability, T/C (second compound 0.316 µM, first compound 3 µM) was 84.5%. It also gave a viability, T/C (second compound 1 µM, first compound 0.00949 µM) of 62.1%, a viability, T/C (second compound 1 µM, first compound 0.03 µM) of 54.9% and a viability, T/C (second compound 1 µM, first compound 0.0949 µM) of 61.4%. It also gave a viability, T/C (second compound 1 µM, first compound 0.3 µM) of 56.3%, a viability, T/C (second compound 1 µM, first compound 0.949 µM) of 59.6% and a viability, T/C (second compound 1 µM, first compound 3 µM) of 81.1%. The viability, T/C (second compound 3.16 µM, first compound 0.00949 µM) was 66.8%, the viability, T/C (second compound 3.16 µM, first compound 0.03 µM) was 52.9% and the viability, T/C (second compound 3.16 µM, first compound 0.0949 µM) was 55.3%. The viability, T/C (second compound 3.16 µM, first compound 0.3 µM) was 54%, the viability, T/C (second compound 3.16 µM, first compound 0.949 µM) was 75% and the viability, T/C (second compound 3.16 µM, first compound 3 µM) was 86.7%. For the same compound, the viability, T/C (second compound 10 µM, first compound 0.00949 µM) was 63.7%, the viability, T/C (second compound 10 µM, first compound 0.03 µM) was 60.6% and the viability, T/C (second compound 10 µM, first compound 0.0949 µM) was 60.3%. The viability, T/C (second compound 10 µM, first compound 0.3 µM) was 61.5%, the viability, T/C (second compound 10 µM, first compound 0.949 µM) was 72% and the viability, T/C (second compound 10 µM, first compound 3 µM) was 91.9%.

With `COc1cc(C2c3cc4c(cc3C(OC3OC5COC(C)OC5C(O)C3O)C3COC(=O)C23)OCO4)cc(OC)c1O` (stereo unspecified) + COC1C(OC(N)=O)C(O)C(Oc2ccc3c(O)c(NC(=O)c4ccc(O)c(CC=C(C)C)c4)c(=O)oc3c2C)OC1(C)C the pIC50 (second compound 0.0316 µM) was 5.88, the pIC50 (second compound 0.1 µM) was 6.02 and the pIC50 (second compound 0.316 µM) was 6.11. For the same compound, the pIC50 (second compound 1 µM) was 5.97, the pIC50 (second compound 3.16 µM) was 6.07 and the pIC50 (second compound 10 µM) was 6.15. It also gave a viability, T/C [1] of 97.7%, a viability, T/C [2] of 95% and a viability, T/C [3] of 72.5%. It also gave a viability, T/C [4] of 51.3%, a viability, T/C [5] of 45.4% and a viability, T/C [6] of 31.5%. It also gave a viability, T/C [7] of 103%, a viability, T/C [8] of 94.7% and a viability, T/C [9] of 73.5%. For the same compound, the viability, T/C [10] was 49.3%, the viability, T/C [11] was 38.2% and the viability, T/C [12] was 36.4%. It also gave a viability, T/C [13] of 101%, a viability, T/C [14] of 98.6% and a viability, T/C [15] of 61.8%. For the same compound, the viability, T/C [16] was 51.4%, the viability, T/C [17] was 35.7% and the viability, T/C [18] was 34.9%. The viability, T/C [19] was 109%, the viability, T/C [20] was 93.2% and the viability, T/C [21] was 85.5%. The viability, T/C [22] was 48.3%, the viability, T/C [23] was 38% and the viability, T/C [24] was 32.7%. For the same compound, the viability, T/C [25] was 87.2%, the viability, T/C [26] was 88.3% and the viability, T/C [27] was 82.4%. The viability, T/C [28] was 44.8%, the viability, T/C [29] was 39.4% and the viability, T/C [30] was 35.5%. For the same compound, the viability, T/C [31] was 96.1%, the viability, T/C [32] was 101% and the viability, T/C [33] was 64.4%. The viability, T/C [34] was 51%, the viability, T/C [35] was 41.3% and the viability, T/C [36] was 36.7%.

For `O=c1[nH]cc(F)c(=O)[nH]1` + COC1C(OC(N)=O)C(O)C(Oc2ccc3c(O)c(NC(=O)c4ccc(O)c(CC=C(C)C)c4)c(=O)oc3c2C)OC1(C)C, the pIC50 (second compound 0.0316 µM) was < 5.00, the pIC50 (second compound 0.1 µM) was < 5.00 and the pIC50 (second compound 0.316 µM) was < 5.00. For the same compound, the pIC50 (second compound 1 µM) was < 5.00, the pIC50 (second compound 3.16 µM) was < 5.00 and the pIC50 (second compound 10 µM) was < 5.00. For the same compound, the viability, T/C [1] was 103%, the viability, T/C [2] was 99.7% and the viability, T/C [3] was 102%. It also gave a viability, T/C [4] of 98.9%, a viability, T/C [5] of 82.7% and a viability, T/C [6] of 78.5%. It also gave a viability, T/C [7] of 109%, a viability, T/C [8] of 116% and a viability, T/C [9] of 99.7%. For the same compound, the viability, T/C [10] was 82.9%, the viability, T/C [11] was 82.5% and the viability, T/C [12] was 79%. It also gave a viability, T/C [13] of 109%, a viability, T/C [14] of 105% and a viability, T/C [15] of 93.5%. It also gave a viability, T/C [16] of 92.1%, a viability, T/C [17] of 84.8% and a viability, T/C [18] of 84%. For the same compound, the viability, T/C [19] was 107%, the viability, T/C [20] was 108% and the viability, T/C [21] was 93.2%. It also gave a viability, T/C [22] of 90.5%, a viability, T/C [23] of 72.2% and a viability, T/C [24] of 80.8%. The viability, T/C [25] was 98%, the viability, T/C [26] was 94.1% and the viability, T/C [27] was 102%. For the same compound, the viability, T/C [28] was 89.2%, the viability, T/C [29] was 81.8% and the viability, T/C [30] was 82.5%. For the same compound, the viability, T/C [31] was 103%, the viability, T/C [32] was 98% and the viability, T/C [33] was 99.9%. For the same compound, the viability, T/C [34] was 79.9%, the viability, T/C [35] was 77.7% and the viability, T/C [36] was 81.4%.

Source: PubChem BioAssay AID1963844 (Molecular Pharmacology Branch, DTP, NCI, 2024)
